ChEMBL document CHEMBL1781873, “Synthesis and antibacterial property of pyrrolopyrano quinolinones and pyrroloquinolines” (2011)
Converted amounts (≈) assume the structure as drawn. The source made the active and inactive calls. The rule behind the calls is not given here.

Assays:
Escherichia coli [1] = experiment: Inhibition of DNA gyrase mRNA expression in Escherichia coli measured up to 24 hrs by RT-PCR; assay type: functional, organism-based
Klebsiella pneumoniae [2] = experiment: Antibacterial activity against Klebsiella pneumoniae at 25 ug after 24 hrs by disc diffusion assay; assay type: functional; conditions: read-out: IZ
Klebsiella pneumoniae [3] = experiment: Antibacterial activity against Klebsiella pneumoniae at 20 ug after 24 hrs by disc diffusion assay; assay type: functional; conditions: read-out: IZ
Salmonella typhi [4] = experiment: Antibacterial activity against Salmonella typhi at 25 ug after 24 hrs by disc diffusion assay; assay type: functional, Salmonella enterica subsp. enterica serovar Typhi; conditions: Salmonella enterica, read-out: IZ
Escherichia coli [5] = experiment: Antibacterial activity against Escherichia coli at 5 ug after 24 hrs by disc diffusion assay; assay type: functional; conditions: read-out: IZ
Staphylococcus aureus [6] = experiment: Antibacterial activity against Staphylococcus aureus at 25 ug after 24 hrs by disc diffusion assay; assay type: functional; conditions: read-out: IZ
Escherichia coli [7] = experiment: Antibacterial activity against Escherichia coli after 18 to 20 hrs by broth micro dilution assay; assay type: functional
Klebsiella pneumoniae [8] = experiment: Antibacterial activity against Klebsiella pneumoniae at 15 ug after 24 hrs by disc diffusion assay; assay type: functional; conditions: read-out: IZ
Bacillus subtilis [9] = experiment: Antibacterial activity against Bacillus subtilis at 25 ug after 24 hrs by disc diffusion assay; assay type: functional; conditions: read-out: IZ
Staphylococcus aureus [10] = experiment: Antibacterial activity against Staphylococcus aureus at 15 ug after 24 hrs by disc diffusion assay; assay type: functional; conditions: read-out: IZ
Staphylococcus aureus [11] = experiment: Antibacterial activity against Staphylococcus aureus at 20 ug after 24 hrs by disc diffusion assay; assay type: functional; conditions: read-out: IZ
Salmonella typhi [12] = experiment: Antibacterial activity against Salmonella typhi at 5 ug after 24 hrs by disc diffusion assay; assay type: functional, Salmonella enterica subsp. enterica serovar Typhi; conditions: Salmonella enterica, read-out: IZ
Salmonella typhi [13] = experiment: Antibacterial activity against Salmonella typhi at 10 ug after 24 hrs by disc diffusion assay; assay type: functional, Salmonella enterica subsp. enterica serovar Typhi; conditions: Salmonella enterica, read-out: IZ
Pseudomonas aeruginosa [14] = experiment: Antibacterial activity against Pseudomonas aeruginosa at 15 ug after 24 hrs by disc diffusion assay; assay type: functional; conditions: read-out: IZ
Salmonella typhi [15] = experiment: Antibacterial activity against Salmonella typhi after 18 to 20 hrs by broth micro dilution assay; assay type: functional, Salmonella enterica subsp. enterica serovar Typhi; conditions: Salmonella enterica
Bacillus subtilis [16] = experiment: Antibacterial activity against Bacillus subtilis at 20 ug after 24 hrs by disc diffusion assay; assay type: functional; conditions: read-out: IZ
Pseudomonas aeruginosa [17] = experiment: Antibacterial activity against Pseudomonas aeruginosa at 10 ug after 24 hrs by disc diffusion assay; assay type: functional; conditions: read-out: IZ
Staphylococcus aureus [18] = experiment: Antibacterial activity against Staphylococcus aureus at 10 ug after 24 hrs by disc diffusion assay; assay type: functional; conditions: read-out: IZ
Escherichia coli [19] = experiment: Antibacterial activity against Escherichia coli at 20 ug after 24 hrs by disc diffusion assay; assay type: functional; conditions: read-out: IZ
Escherichia coli [20] = experiment: Inhibition of Escherichia coli DNA gyrase -mediated DNA relaxation using pBR322 DNA as substrate at […] after 1 hrs by agarose gel electrophoresis
Escherichia coli [21] = experiment: Antibacterial activity against Escherichia coli at 25 ug after 24 hrs by disc diffusion assay; assay type: functional; conditions: read-out: IZ
Escherichia coli [22] = experiment: Inhibition of Escherichia coli DNA gyrase assessed as inhibition of DNA supercoiling activity using pBR322 DNA as substrate at […] after 3 hrs by agarose gel electrophoresis
Klebsiella pneumoniae [23] = experiment: Antibacterial activity against Klebsiella pneumoniae at 10 ug after 24 hrs by disc diffusion assay; assay type: functional; conditions: read-out: IZ
Staphylococcus aureus [24] = experiment: Antibacterial activity against Staphylococcus aureus after 18 to 20 hrs by broth micro dilution assay; assay type: functional
Klebsiella pneumoniae [25] = experiment: Antibacterial activity against Klebsiella pneumoniae after 18 to 20 hrs by broth micro dilution assay; assay type: functional
Pseudomonas aeruginosa [26] = experiment: Antibacterial activity against Pseudomonas aeruginosa at 25 ug after 24 hrs by disc diffusion assay; assay type: functional; conditions: read-out: IZ
Escherichia coli [27] = experiment: Antibacterial activity against Escherichia coli at 10 ug after 24 hrs by disc diffusion assay; assay type: functional; conditions: read-out: IZ
Pseudomonas aeruginosa [28] = experiment: Antibacterial activity against Pseudomonas aeruginosa after 18 to 20 hrs by broth micro dilution assay; assay type: functional
Staphylococcus aureus [29] = experiment: Antibacterial activity against Staphylococcus aureus at 5 ug after 24 hrs by disc diffusion assay; assay type: functional; conditions: read-out: IZ
Klebsiella pneumoniae [30] = experiment: Antibacterial activity against Klebsiella pneumoniae at 5 ug after 24 hrs by disc diffusion assay; assay type: functional; conditions: read-out: IZ
Pseudomonas aeruginosa [31] = experiment: Antibacterial activity against Pseudomonas aeruginosa at 20 ug after 24 hrs by disc diffusion assay; assay type: functional; conditions: read-out: IZ
Pseudomonas aeruginosa [32] = experiment: Antibacterial activity against Pseudomonas aeruginosa at 5 ug after 24 hrs by disc diffusion assay; assay type: functional; conditions: read-out: IZ
Bacillus subtilis [33] = experiment: Antibacterial activity against Bacillus subtilis at 15 ug after 24 hrs by disc diffusion assay; assay type: functional; conditions: read-out: IZ
Salmonella typhi [34] = experiment: Antibacterial activity against Salmonella typhi at 20 ug after 24 hrs by disc diffusion assay; assay type: functional, Salmonella enterica subsp. enterica serovar Typhi; conditions: Salmonella enterica, read-out: IZ
Escherichia coli [35] = experiment: Antibacterial activity against Escherichia coli at 15 ug after 24 hrs by disc diffusion assay; assay type: functional; conditions: read-out: IZ
Salmonella typhi [36] = experiment: Antibacterial activity against Salmonella typhi at 15 ug after 24 hrs by disc diffusion assay; assay type: functional, Salmonella enterica subsp. enterica serovar Typhi; conditions: Salmonella enterica, read-out: IZ
Bacillus subtilis [37] = experiment: Antibacterial activity against Bacillus subtilis after 18 to 20 hrs by broth micro dilution assay; assay type: functional
Bacillus subtilis [38] = experiment: Antibacterial activity against Bacillus subtilis at 10 ug after 24 hrs by disc diffusion assay; assay type: functional; conditions: read-out: IZ

With `CCC1[C@@H]2Nc3ccc(Br)cc3C(c3ccccc3)[C@H]2CN1OS(=O)(=O)c1ccc(C)cc1` (some centres undefined) the “inhibition of gyrase mRNA expression (active/not active)” value (Escherichia coli [1]) was “inactive”, the zone of inhibition at 25 µg/disc (Klebsiella pneumoniae [2]) was 26 mm and the zone of inhibition at 20 µg/disc (Klebsiella pneumoniae [3]) was 24 mm. The zone of inhibition at 25 µg/disc (Salmonella typhi [4]) was 24 mm, the zone of inhibition at 5 µg/disc (Escherichia coli [5]) was 12 mm and the zone of inhibition at 25 µg/disc (Staphylococcus aureus [6]) was 36 mm. The MIC50 (Escherichia coli [7]) was 0.25 µg/mL (≈ 0.474 µM), the MIC90 (Escherichia coli [7]) was 0.5 µg/mL (≈ 0.948 µM) and the zone of inhibition at 15 µg/disc (Klebsiella pneumoniae [8]) was 16 mm. The zone of inhibition at 25 µg/disc (Bacillus subtilis [9]) was 11 mm, the zone of inhibition at 15 µg/disc (Staphylococcus aureus [10]) was 26 mm and the zone of inhibition at 20 µg/disc (Staphylococcus aureus [11]) was 30 mm. The zone of inhibition at 5 µg/disc (Salmonella typhi [12]) was 10 mm, the zone of inhibition at 10 µg/disc (Salmonella typhi [13]) was 16 mm and the zone of inhibition at 15 µg/disc (Pseudomonas aeruginosa [14]) was 28 mm. It also gave an MIC50 (Salmonella typhi [15]) of 0.25 µg/mL (≈ 0.474 µM), an MIC90 (Salmonella typhi [15]) of 0.5 µg/mL (≈ 0.948 µM) and a zone of inhibition at 20 µg/disc (Bacillus subtilis [16]) of 10 mm. For the same compound, the zone of inhibition at 10 µg/disc (Pseudomonas aeruginosa [17]) was 26 mm, the zone of inhibition at 10 µg/disc (Staphylococcus aureus [18]) was 24 mm and the zone of inhibition at 20 µg/disc (Escherichia coli [19]) was 22 mm. The inhibition (Escherichia coli [20]) was “Active”, the zone of inhibition at 25 µg/disc (Escherichia coli [21]) was 23 mm and the “DNA gyrase inhibition (active/inactive)” value (Escherichia coli [22]) was “Active”. It also gave a zone of inhibition at 10 µg/disc (Klebsiella pneumoniae [23]) of 14 mm, an MIC50 (Staphylococcus aureus [24]) of 0.25 µg/mL (≈ 0.474 µM) and an MIC90 (Staphylococcus aureus [24]) of 0.5 µg/mL (≈ 0.948 µM). The MIC50 (Klebsiella pneumoniae [25]) was 0.25 µg/mL (≈ 0.474 µM), the MIC90 (Klebsiella pneumoniae [25]) was 0.5 µg/mL (≈ 0.948 µM) and the zone of inhibition at 25 µg/disc (Pseudomonas aeruginosa [26]) was 36 mm. The zone of inhibition at 10 µg/disc (Escherichia coli [27]) was 14 mm, the MIC50 (Pseudomonas aeruginosa [28]) was 0.25 µg/mL (≈ 0.474 µM) and the MIC90 (Pseudomonas aeruginosa [28]) was 0.5 µg/mL (≈ 0.948 µM). The zone of inhibition at 5 µg/disc (Staphylococcus aureus [29]) was 20 mm, the zone of inhibition at 5 µg/disc (Klebsiella pneumoniae [30]) was 10 mm and the zone of inhibition at 20 µg/disc (Pseudomonas aeruginosa [31]) was 34 mm. For the same compound, the zone of inhibition at 5 µg/disc (Pseudomonas aeruginosa [32]) was 24 mm, the zone of inhibition at 15 µg/disc (Bacillus subtilis [33]) was 9 mm and the zone of inhibition at 20 µg/disc (Salmonella typhi [34]) was 22 mm. It also gave a zone of inhibition at 15 µg/disc (Escherichia coli [35]) of 16 mm, a zone of inhibition at 15 µg/disc (Salmonella typhi [36]) of 18 mm and an MIC50 (Bacillus subtilis [37]) of 0.25 µg/mL (≈ 0.474 µM). The MIC90 (Bacillus subtilis [37]) was 0.5 µg/mL (≈ 0.948 µM) and the zone of inhibition at 10 µg/disc (Bacillus subtilis [38]) was 8 mm.
